Literature values in patent US20180368457A1 (Petiva Private Limited, priority 2015, published 2018).

Columns and labels:
[1] = intravenously administered, within 6 hours of treatment
[2] = in vivo
[3] = storage temperature 25° C., relative humidity approximately 85%

| Compound | excreted in the urine [1] | glycemic index, in words [2] | solubility | water pick-up on storage [3] |
| --- | --- | --- | --- | --- |
| O=C(CO)[C@H](O)[C@H](O)[C@H](O)CO [allulose, D-Psicose] | approximately 98% | low glycemic index | high solubility |  |
| OCC1O[C@H](OC[C@H]2O[C@](O)(CO)C(O)C2O)C(O)C(O)[C@@H]1O (stereo partly shown) [isomaltulose, Isomaltulose] |  | very low GI |  | No significant water pick-up |
| OC[C@H]1O[C@](O)(CO[C@H]2O[C@H](CO)[C@@H](O)[C@H](O)[C@H]2O)[C@@H](O)[C@@H]1O [trehalulose, 1-O-α-D-glucopyranosyl-β-D-fructofuranose] |  | less glycemic | more soluble in water than its structural isomers sucrose |  |
